Work on `C#CC(C)(C)NC(=O)c1cc(Cl)cc(Cl)c1` yielded a solubility (mole fraction) (in cyclohexane, 283.15 K) of 0.000135, a solubility (mole fraction) (in cyclohexane, 288.15 K) of 0.000185 and a solubility (mole fraction) (in cyclohexane, 293.15 K) of 0.000293. For the same compound, the solubility (mole fraction) (in cyclohexane, 298.15 K) was 0.000425, the solubility (mole fraction) (in cyclohexane, 303.15 K) was 0.000544 and the solubility (mole fraction) (in cyclohexane, 308.15 K) was 0.000704. It also gave a solubility (mole fraction) (in cyclohexane, 313.15 K) of 0.00081, a solubility (mole fraction) (in cyclohexane, 318.15 K) of 0.00101 and a solubility (mole fraction) (in cyclohexane, 323.15 K) of 0.00124. It also gave a solubility (mole fraction) (in ethanol, 278.15 K) of 0.0071, a solubility (mole fraction) (in ethanol, 283.15 K) of 0.00834 and a solubility (mole fraction) (in ethanol, 288.15 K) of 0.00953. It also gave a solubility (mole fraction) (in ethanol, 293.15 K) of 0.011, a solubility (mole fraction) (in ethanol, 298.15 K) of 0.0131 and a solubility (mole fraction) (in ethanol, 303.15 K) of 0.0151. The solubility (mole fraction) (in ethanol, 308.15 K) was 0.0174, the solubility (mole fraction) (in ethanol, 313.15 K) was 0.0205 and the solubility (mole fraction) (in ethanol, 318.15 K) was 0.0242. The solubility (mole fraction) (in ethanol, 323.15 K) was 0.0295, the solubility (mole fraction) (in isopropanol, 278.15 K) was 0.00219 and the solubility (mole fraction) (in isopropanol, 283.15 K) was 0.00269. The solubility (mole fraction) (in isopropanol, 288.15 K) was 0.00351, the solubility (mole fraction) (in isopropanol, 293.15 K) was 0.00526 and the solubility (mole fraction) (in isopropanol, 298.15 K) was 0.00705. The solubility (mole fraction) (in isopropanol, 303.15 K) was 0.00865, the solubility (mole fraction) (in isopropanol, 308.15 K) was 0.0112 and the solubility (mole fraction) (in isopropanol, 313.15 K) was 0.0137. For the same compound, the solubility (mole fraction) (in isopropanol, 318.15 K) was 0.0171, the solubility (mole fraction) (in isopropanol, 323.15 K) was 0.023 and the solubility (mole fraction) (in methanol, 278.15 K) was 0.00654. The solubility (mole fraction) (in methanol, 283.15 K) was 0.0077, the solubility (mole fraction) (in methanol, 288.15 K) was 0.00892 and the solubility (mole fraction) (in methanol, 293.15 K) was 0.0101. For the same compound, the solubility (mole fraction) (in methanol, 298.15 K) was 0.0124, the solubility (mole fraction) (in methanol, 303.15 K) was 0.0145 and the solubility (mole fraction) (in methanol, 308.15 K) was 0.017. It also gave a solubility (mole fraction) (in methanol, 313.15 K) of 0.0201, a solubility (mole fraction) (in methanol, 318.15 K) of 0.0236 and a solubility (mole fraction) (in methanol, 323.15 K) of 0.0283. For the same compound, the solubility (mole fraction) (in toluene, 278.15 K) was 0.00179, the solubility (mole fraction) (in toluene, 283.15 K) was 0.00238 and the solubility (mole fraction) (in toluene, 288.15 K) was 0.00298. For the same compound, the solubility (mole fraction) (in toluene, 293.15 K) was 0.00368, the solubility (mole fraction) (in toluene, 298.15 K) was 0.00467 and the solubility (mole fraction) (in toluene, 303.15 K) was 0.00593. The solubility (mole fraction) (in toluene, 308.15 K) was 0.00735, the solubility (mole fraction) (in toluene, 313.15 K) was 0.00924 and the solubility (mole fraction) (in toluene, 318.15 K) was 0.0113. It also gave a solubility (mole fraction) (in toluene, 323.15 K) of 0.0124.

— BigSolDB 2.1
